Laboratory results from patent US20240060146A1, “CHEMICAL SUBSTANCE EVALUATION SYSTEM USING MULTICOLOR LIGHT-EMITTING CELLS” (TOHOKU UNIVERSITY, priority 2020, published 2024).
Where a name gives a salt, the structure may show the parent alone.

Legend:
Format in all cases: cell-based
2H4 cells [1] = experiment: Evaluation of combination of IL-2 Luc LTT and IL-2 Luc assay; parameters: key: Positive (Pos): If the result is either LCT in the IL-2 Luc LTT or S in the IL-2 Luc assay, or both, the chemical substance is determined to be an immunosuppressive substance.; Negative (Neg): In the case other than the above, the chemical substance is determined to be a non-immunosuppressive substance; conditions: LCT in IL-2 Luc LTT or S in IL-2 Luc assay = Pos
Description: Positive (Pos): If the result is either LCT in the IL-2 Luc LTT or S in the IL-2 Luc assay, or both, the chemical substance is determined to be an immunosuppressive substance. Negative (Neg): In the case other than the above, the chemical substance is determined to be a non-immunosuppressive substance.

2H4 cells [2] = experiment: IL-2 Luc LTT: evaluation of chemical substance in 2H4 cells; conditions: 1 h chemical, then 25 nM PMA and 1 μM ionomycin 24 h, class from Min % suppression (nIL2LA) and Min Inh-GAPLA
Description: (§1) 2H4 cells were established from Jurkat cells according to the method described in PTL 1. First, for the preparation of 2H4 cells, a plasmid having SLG introduced downstream of the IL-2 promoter, a plasmid having SLR introduced downstream of the G3PDH promoter, and a plasmid having SLO introduced downstream of the INF-γ promoter were prepared as internal standards. These plasmids contained a resistance gene for hygromycin B, puromycin, and neomycin downstream of SLG, SLR, and SLO, respectively. The conditions for drug selection after transfection of the host Jurkat cells were as follows: in the primary selection, the cells were cultured for 1 week in the presence of a drug. In the secondary selection culture, the cells that survived in the primary selection culture were seeded in a 96-well plate at 1 cell/well or 200 cells/well, and cultured for 2 weeks under the same drug conditions. After the secondary selection culture, the cells were subjected to clone selection from the two points of signal intensity and signal induction by drug treatment. The G3PDH promoter SLR was first introduced to establish monochromatic stable cell line Jurkat: G3PDH-SLR #14D1 cells. These cells were used as the parent cell line to introduce the INF-γ promoter SLO, thereby establishing bichromatic stable cell line Jurkat: INFγ-SLO/G3PDH-SLR #2B12 cells. Subsequently, the obtained cells were used as a parent cell line to introduce the IL-2 promoter SLG, thereby establishing trichromatic stable cell line Jurkat IL-2-SLG/INFγ-SLO/G3PDH-SLR #2H4 cells.
The chemical substances listed in Table 1 were evaluated using 2H4 cells. 2H4 cells were seeded in a 96-well plate at 1×10^4/well and treated with each chemical substance for 1 hour, followed by incubating the cells with 25 nM PMA and 1 μM ionomycin for 24 hours. After 24 hours from the treatment with PMA and ionomycin, Tripluck Assay Reagent (manufactured by Toyobo Co., Ltd.) was added, and the amount of luminescence was measured with a Phelios microplate luminometer (manufactured by Atto Corporation). For control, 2H4 cells untreated with a chemical substance were also examined in the same manner. The amount of luminescence of SLG luciferase activity (IL2LA), SLR luciferase activity (GAPLA), and SLO luciferase activity (IFNLA) was measured, and IL-2LA and IFNLA were each normalized by GAPLA and determined to be nIL2LA and nIFNLA, respectively. Thereafter, for the concentration of each chemical substance, “% suppression” and “Inh-GAPLA” were determined according to the following formulas (1) and (2), and the chemical substances were evaluated by using their minimum value (Min % suppression, Min Inh-GAPLA).
In the evaluation, for control, PMA/ionomycin-treated 2H4 cells and PMA/ionomycin-untreated 2H4 cells were also measured for nIL2LA.
(§2) % suppression={(nIL2LA in 2H4 cells untreated with a chemical substance)−(nIL2LA in 2H4 cells treated with a chemical substance)}×100/(nIL2LA in 2H4 cells untreated with a chemical substance) ---(1) Inh-GAPLA=(GAPLA in 2H4 cells treated with a chemical substance)/(GAPLA in 2H4 cells untreated with a chemical substance) ---(2)

2H4 cells [3] = experiment: IL-2 Luc assay: evaluation of chemical substance in 2H4 cells; conditions: 1 h chemical, then PMA/ionomycin, luminescence after six hours, class from Min % suppression of nIL2LA
Description: as §1, §2
The chemical substances listed in Table 1 were evaluated using 2H4 cells. 2H4 cells were seeded in a 96-well plate at 2×10^5 cells/50 μl/well and treated with each chemical substance for 1 hour, followed by incubating the cells with 25 nM PMA and 1 µM ionomycin […]. After six hours from the treatment with PMA and ionomycin, Tripluc: Assay Reagent (manufactured by Toyobo Co., Ltd.) was added, and the amount of luminescence was measured with a Phelios microplate luminometer (manufactured by Atto Corporation). For control, 2H4 cells untreated with a chemical substance were also examined in the same manner. The amount of luminescence of SLG luciferase activity (IL2LA), SLR luciferase activity (GAPLA), and SLO luciferase activity (IFNLA) was measured, and IL-2LA and IFNLA were each normalized by GAPLA and determined to be nIL2LA and nIFNLA, respectively. Thereafter, for the concentration of each chemical substance, the value of suppression was calculated according to formula (1) above, and the chemical substances were evaluated by using their minimum value (Min suppression).

Evaluation of Combination (2H4 cells [1])	Structure (SMILES)	IL-2 Luc LTT (2H4 cells [2])	IL-2 Luc Assay (2H4 cells [3])
Pos	O=c1[nH]cc(F)c(=O)[nH]1 [5-Fluorouracil]	LCT (Min % suppression ≤−35 and Min Inh-GAPLA <0.7: Leukocyte toxic (denoted as “LCT”; determined to have cell growth inhibition action and/or metabolic activity inhibition action))	N (−35<Min % suppression <35: No Effect (denoted as “N”; determined to not affect immunity))
Neg	S=c1nc[nH]c2nc[nH]c12 [6-Mercaptoprine]	NLCT	N (−35<Min % suppression <35: No Effect (denoted as “N”; determined to not affect immunity))
Pos	Nc1nc2nc[nH]c2c(=S)[nH]1 [6-Thioguanine]	LCT (Min % suppression ≤−35 and Min Inh-GAPLA <0.7: Leukocyte toxic (denoted as “LCT”; determined to have cell growth inhibition action and/or metabolic activity inhibition action))	N (−35<Min % suppression <35: No Effect (denoted as “N”; determined to not affect immunity))
Pos	CC(=O)Nc1ccc(O)cc1 [Acetaminophen (AA), Acetaminophen]		A (Min suppression ≤−35: Augmentation (denoted as “A”; determined to have immunoaugmenting action))
Neg	Nc1nc2c(ncn2COCCO)c(=O)[nH]1 [Acyclovir]	I (−35<Min % suppression <35 and 0.7≤Min Inh-GAPLA: Inconclusive (denoted as “I”; possibly not measurable due to low water solubility))	N (−35<Min % suppression <35: No Effect (denoted as “N”; determined to not affect immunity))
Pos	Cn1cnc([N+](=O)[O-])c1Sc1ncnc2nc[nH]c12 [Azathioprine (AZ), Azathioprine]	NLCT	S (Min %; suppression ≥35: Suppression (denoted as “S”; determined to have immunosuppressive action))
Neg	CS(=O)(=O)OCCCCOS(C)(=O)=O [Busulfan]	I (−35<Min % suppression <35 and 0.7≤Min Inh-GAPLA: Inconclusive (denoted as “I”; possibly not measurable due to low water solubility))	N (−35<Min % suppression <35: No Effect (denoted as “N”; determined to not affect immunity))
Pos	CCN(CC)CCCC(C)Nc1ccnc2cc(Cl)ccc12 (centres unmarked) [Chloroquine (CQ), Chloroquine]	NLCT	S (Min %; suppression ≥35: Suppression (denoted as “S”; determined to have immunosuppressive action))
Neg	NS(=O)(=O)c1cc2c(cc1Cl)N=CNS2(=O)=O [Chlorothiazide]	NLCT	N (−35<Min % suppression <35: No Effect (denoted as “N”; determined to not affect immunity))
Pos	Nc1ccn([C@@H]2O[C@H](CO)[C@@H](O)[C@@H]2O)c(=O)n1 [Cytarabine]	LCT (Min % suppression ≤−35 and Min Inh-GAPLA <0.7: Leukocyte toxic (denoted as “LCT”; determined to have cell growth inhibition action and/or metabolic activity inhibition action))	N (−35<Min % suppression <35: No Effect (denoted as “N”; determined to not affect immunity))
Neg	C[C@@H]1C[C@H]2[C@@H]3CCC4=CC(=O)C=C[C@]4(C)[C@@]3(F)[C@@H](O)C[C@]2(C)[C@@]1(O)C(=O)CO [Dexamethasone (Dex), Dexamethasone]	NLCT	N (−35<Min % suppression <35: No Effect (denoted as “N”; determined to not affect immunity))
Pos	CN(C)CCOC(c1ccccc1)c1ccccc1 [Diphenhydramine]	NLCT	S (Min %; suppression ≥35: Suppression (denoted as “S”; determined to have immunosuppressive action))
Pos	COc1cccc2c1C(=O)c1c(O)c3c(c(O)c1C2=O)C[C@@](O)(C(=O)CO)C[C@@H]3O[C@H]1C[C@H](N)[C@H](O)[C@H](C)O1 [Doxorubicin hydrochloride]	LCT (Min % suppression ≤−35 and Min Inh-GAPLA <0.7: Leukocyte toxic (denoted as “LCT”; determined to have cell growth inhibition action and/or metabolic activity inhibition action))	S (Min %; suppression ≥35: Suppression (denoted as “S”; determined to have immunosuppressive action))
Pos	COc1cc([C@@H]2c3cc4c(cc3[C@@H](O[C@@H]3O[C@@H]5CO[C@@H](C)O[C@H]5[C@H](O)[C@H]3O)[C@H]3COC(=O)[C@H]23)OCO4)cc(OC)c1O [Etoposide]		N (−35<Min % suppression <35: No Effect (denoted as “N”; determined to not affect immunity))
Pos	COc1ccc2c(c1)c(CC(=O)O)c(C)n2C(=O)c1ccc(Cl)cc1 [Indomethacin]		S (Min %; suppression ≥35: Suppression (denoted as “S”; determined to have immunosuppressive action))
Pos	O=C(O)c1cc(/N=N/c2ccc(S(=O)(=O)Nc3ccccn3)cc2)ccc1O [Sulfasalazine (SASP), Sulfasalazine]		S (Min %; suppression ≥35: Suppression (denoted as “S”; determined to have immunosuppressive action))

Structure (SMILES)	Evaluation of Combination (2H4 cells [1])	IL-2 Luc LTT (2H4 cells [2])	IL-2 Luc Assay (2H4 cells [3])
O=NN(CCCl)C(=O)NCCCl [Carmustine]	Pos	NLCT	S (Min %; suppression ≥35: Suppression (denoted as “S”; determined to have immunosuppressive action))
COc1cc2c(c(OC)c1OC)-c1ccc(OC)c(=O)cc1[C@@H](NC(C)=O)CC2 [Colchicine]	Pos	LCT (Min % suppression ≤−35 and Min Inh-GAPLA <0.7: Leukocyte toxic (denoted as “LCT”; determined to have cell growth inhibition action and/or metabolic activity inhibition action))	S (Min %; suppression ≥35: Suppression (denoted as “S”; determined to have immunosuppressive action))
C[C@H]1O[C@@H](O[C@H]2[C@@H](O)C[C@H](O[C@H]3[C@@H](O)C[C@H](O[C@H]4CC[C@@]5(C)[C@H](CC[C@@H]6[C@@H]5C[C@@H](O)[C@]5(C)[C@@H](C7=CC(=O)OC7)CC[C@]65O)C4)O[C@@H]3C)O[C@@H]2C)C[C@H](O)[C@@H]1O [Digoxin]	Pos	NLCT	S (Min %; suppression ≥35: Suppression (denoted as “S”; determined to have immunosuppressive action))
Nc1nc(F)nc2c1ncn2[C@@H]1O[C@H](CO)[C@@H](O)[C@@H]1O [Fludarabine]	Pos	LCT (Min % suppression ≤−35 and Min Inh-GAPLA <0.7: Leukocyte toxic (denoted as “LCT”; determined to have cell growth inhibition action and/or metabolic activity inhibition action))	A (Min suppression ≤−35: Augmentation (denoted as “A”; determined to have immunoaugmenting action))
